Test results published in patent US20230416329A1, “A PEPTIDE WITH DISULFIDE BONDS AND INHIBITORY ACTIVITY AGAINST SERINE PROTEASES, DERIVED HYBRID PEPTIDES THEREOF, AND USES THEREOF” (INSTITUTE OF MATERIA MEDICA , CHINESE ACADEMY OF MEDICAL …, priority 2020, published 2023).
“And” between values parts separate entries of the source, which are not always exact repeats. Equal values may be shown once.

System: mouse ear swelling
Experiment: Croton oil mouse ear swelling, IL-17A inhibitory peptide administered via duodenum
Assay type: in vivo
Details: peptides 300 mg/kg, dexamethasone 1 mg/mL, 10 mL/kg
Method: Enteric coating technology can be used to achieve oral administration of targeted small intestine drugs. Considering factors such as gastric emptying and physical barriers in the stomach, in order to accurately detect the feasibility of direct intestinal administration of targeted IL-17A inhibitory peptide, duodenal administration is designed. Eight mice in each group are subjected to surgical exposure of the duodenum under ether anesthesia, and the drug is injected according to different grouping schemes.
The model control group (Con) is given PEG400 (50%, w/v)/physiological saline. The administration group was given different polypeptide samples (300 mg/kg), while the positive control group was given dexamethasone (1 mg/mL, 10 mL/kg), and then the muscular layer and cortex were sutured. Ear swelling model was established 6 minutes after suture. All mice in each group were coated with 10 μL croton oil on both sides of the right ear. After 4 hours of inflammation, the mice in each group were killed for cervical dislocation. After that, ear pieces were punched in the symmetrical parts of the left and right ears with a hole punch and weighed. Their mass was recorded. The swelling degree and swelling rate were calculated:
Swelling rate=((right ear mass−left ear mass)/left ear mass)*100%

C[C@@H]1C[C@H]2[C@@H]3CCC4=CC(=O)C=C[C@]4(C)[C@@]3(F)[C@@H](O)C[C@]2(C)[C@@]1(O)C(=O)CO [dexamethasone]
Swelling (%) (4 hours after croton oil): 58.11 ± 18.81 % and 65.67 ± 15.52 % | Swelling inhibitory (%) (vs model control): 39.57% and 28.84%
